Values joined by “and” are separate entries in the source; they are usually repeats but may differ in a detail not shown here. Equal entries are not always repeated. Where a SMILES comes first, the peptide text is derived from it. [ ]: non-standard residue; d: D form. The star is where a group is joined. Trolox = Cc1c(C)c2c(c(C)c1O)CCC(C)(C(=O)*)O2; Cha = N[CH](CC1CCCCC1)C(=O)O
Key:
Fibronectin = assay type: cell-based, mouse
Sprague-Dawley rats = conditions: rat, in vivo
Elastin = assay type: cell-based, mouse
[1] = test system: collagen type I alpha 1 (Col1a1); assay type: cell-based, mouse
[2] = test system: neuroblastoma-derived cell line (SH-SY5Y); assay type: cell-based

SMILES: CCC(C)C(NC(=O)C(CC(C)C)NC(=O)C(CC1CCCCC1)NC(=O)C(CCCCN)NC(=O)C1(C)CCc2c(C)c(O)c(C)c(C)c2O1)C(=O)NC(CCCCN)C(=O)O (stereo not drawn) [trolox-peptide conjugate] (Trolox-K[Cha]LIK-OH; configuration not given here)
- expression level of fibronectin (Fibronectin): significantly increased
- DAS Score (Sprague-Dawley rats): 4 and 2 and 3
- duration of the muscle relaxation effect (Sprague-Dawley rats): lasted longer
- expression level of elastin (Elastin): significantly increased
- expression level of collagen (Col1a1) [1]: significantly increased
- release of acetylcholine [2]: significantly inhibited
